Source: PubChem BioAssay AID1949 (Southern Research Institute, 2009)
Values after ≈ are worked out from the molar mass of the structure shown. Inconclusive results are not listed. Active and inactive are the calls of the source. How the calls were made is not given here.

Test system: M. tuberculosis H37Rv growth inhibition
Experiment: Mycobacterium tuberculosis H37Rv growth inhibition, cell based, confirmatory dose response (AID 1949);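 further: bacteria grown 7 days with compound before Alamar blue readout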

Structure (SMILES): Clc1ccc(OCCCn2ccnc2)cc1Cl
- IC50: 3.98 µg/mL (≈ 14.7 µM)

Structure (SMILES): CSc1ncc(C(=O)NCc2ccco2)cn1
- IC50: 3.04 µg/mL (≈ 12.2 µM)

Structure (SMILES): O=C1c2ccccc2C2=Nc3cc(Cl)ccc3OC12O (centres undefined)
- IC50: 5.5 µg/mL (≈ 19.3 µM)

Structure (SMILES): COc1ccc2nc(/C(C#N)=C\c3cccn3-c3ccccc3F)[nH]c2c1
- IC50: 4.8 µg/mL (≈ 13.4 µM)

Structure (SMILES): CCN(CC)c1ccc(NC(=O)c2cnccn2)cc1
- IC50: 2.37 µg/mL (≈ 8.77 µM)

Structure (SMILES): CC(C)c1ccc(OCC(=O)Nc2nc(C(C)(C)C)cs2)cc1
- IC50: 3.87 µg/mL (≈ 11.6 µM)

Structure (SMILES): CCCCc1ccc(NC(=O)COc2ccc(OCC)cc2)cc1
- IC50: 4.9 µg/mL (≈ 15 µM)

Structure (SMILES): Cc1ccc(NC(=O)C23CC4CCC(CC(C4)C2)C3)cc1
- IC50: 0.19 µg/mL (≈ 0.67 µM)

Structure (SMILES): CC(=O)c1c(C)nc(-c2ccc(Cl)c(Cl)c2)n1O
- IC50: 17.4 µg/mL (≈ 60.9 µM)

Structure (SMILES): CCOc1cccc(N2C(=O)CC(S/C(N)=N/N=C(\C)c3ccc(Cl)s3)C2=O)c1 (centres undefined)
- IC50: 2.62 µg/mL (≈ 5.81 µM)

Structure (SMILES): CC(C)OC(=O)CSc1nnc(-c2ccc(N(C)C)cc2)o1
- IC50: < 0.1 µg/mL

Structure (SMILES): CCOC(=O)COc1ccc(S(=O)(=O)Nc2c(C)cccc2CC)cc1
- IC50: 0.33 µg/mL (≈ 0.874 µM)

Structure (SMILES): COc1cc(CNCCO)cc(Cl)c1OCc1ccc(Cl)cc1Cl
- IC50: 5.72 µg/mL (≈ 14.6 µM)

Structure (SMILES): OC(COCCC12CC3CC(CC(C3)C1)C2)CN1CCc2ccccc2C1 (centres undefined)
- IC50: 3.49 µg/mL (≈ 9.44 µM)

Structure (SMILES): COc1cc2c(cc1OC)C(c1ccc(-c3ccc(Cl)c(Cl)c3)o1)=NCC2
- IC50: 6.98 µg/mL (≈ 17.4 µM)

Structure (SMILES): O=C(OCc1ccccc1Cl)c1cc2ccccc2oc1=O
- IC50: > 50 µg/mL (inactive)

Structure (SMILES): c1ccc(OCCCCn2cnc3ccccc32)cc1
- IC50: 16 µg/mL (≈ 60.2 µM)

Structure (SMILES): Cc1ccc(-n2c(=O)oc3ccc(Cl)cc3c2=O)cc1Cl
- IC50: 1.08 µg/mL (≈ 3.35 µM)

Structure (SMILES): Cc1ccc(NC(=S)c2ccccn2)c(C)c1
- IC50: 4.22 µg/mL (≈ 17.4 µM)

Structure (SMILES): CC(C)(C)C(=O)NC(=S)NNC(=O)C(c1ccccc1)c1ccccc1
- IC50: 3.01 µg/mL (≈ 8.15 µM)

Structure (SMILES): Cc1cc(OCCCn2ccnc2)cc(C(C)C)c1
- IC50: 6.24 µg/mL (≈ 24.2 µM)

Structure (SMILES): CC(C)OC(=O)C(C)n1cnc2scc(-c3ccc(Br)cc3)c2c1=O (centres undefined)
- IC50: 8.3 µg/mL (≈ 19.7 µM)

Structure (SMILES): CC1(C)C=Cc2c(nc3ccccc3c2NCc2ccccc2)C1
- IC50: 1.47 µg/mL (≈ 4.68 µM)

Structure (SMILES): N=c1c2c(-c3ccccc3)c(-c3ccccc3)n(Cc3ccco3)c2ncn1Cc1ccco1
- IC50: 3.09 µg/mL (≈ 6.92 µM)

Structure (SMILES): CN1CCN(c2ccc(NC(=S)NC(=O)c3cc4ccccc4o3)cc2)CC1
- IC50: 10.7 µg/mL (≈ 27.2 µM)

Structure (SMILES): CCCCOc1ccc(S(=O)(=O)Nc2ccc(I)cc2)cc1
- IC50: 2.84 µg/mL (≈ 6.58 µM)

Structure (SMILES): Cc1cccc(C(=O)Nc2nc3ccccc3[nH]2)c1
- IC50: 0.74 µg/mL (≈ 2.94 µM)

Structure (SMILES): CC(=O)c1ccc(S(=O)(=O)c2ccc(C)cc2)c([N+](=O)[O-])c1
- IC50: 2.94 µg/mL (≈ 9.21 µM)

Structure (SMILES): Cc1ccc(NCCC(=O)c2ccc([N+](=O)[O-])cc2)cc1Cl
- IC50: 19.6 µg/mL (≈ 61.3 µM)

Structure (SMILES): CCOC(=O)COc1ccc(C(=O)Nc2ccc(F)cc2)cc1
- IC50: < 0.1 µg/mL

Structure (SMILES): c1ccc2c(C(c3ccncc3)c3c[nH]c4ccccc34)c[nH]c2c1
- IC50: 12.2 µg/mL (≈ 37.8 µM)

Structure (SMILES): O=C(NCC1COc2ccccc2O1)c1ccc(NC(=O)C2COc3ccccc3O2)cc1 (centres undefined)
- IC50: 1.94 µg/mL (≈ 4.35 µM)

Structure (SMILES): Cc1ccc(-c2ccc(/C=C/C(=O)c3ccco3)o2)cc1
- IC50: 1.71 µg/mL (≈ 6.14 µM)

Structure (SMILES): Cc1ccc(NC(=O)COc2cccc(C=O)c2)cc1Cl
- IC50: 5.9 µg/mL (≈ 19.4 µM)

Structure (SMILES): CC(C)(C)NCCCOc1ccc(Cl)cc1C(C)(C)C
- IC50: 23.3 µg/mL (≈ 78.2 µM)

Structure (SMILES): NC(=O)c1c(NC(=O)c2cc3ccccc3oc2=O)sc2c1CCCCCC2
- IC50: 1.03 µg/mL (≈ 2.6 µM)

Structure (SMILES): CCCc1cc2c(=O)c(-c3ccc4c(c3)OCCCO4)coc2cc1OCC(=O)OCC
- IC50: 0.3 µg/mL (≈ 0.684 µM)

Structure (SMILES): C=CCNCCCOc1ccc(Cl)cc1C(C)(C)C
- IC50: 6.96 µg/mL (≈ 24.7 µM)

Structure (SMILES): COc1ccc(OCc2nn3c(-c4ccc(C(C)(C)C)cc4)nnc3s2)cc1
- IC50: > 50 µg/mL (inactive)

Structure (SMILES): Cc1cc(Cl)ccc1NC(=O)CCc1ccc(S(=O)(=O)NC(C)C)cc1
- IC50: 2.93 µg/mL (≈ 7.42 µM)

Structure (SMILES): COc1ccc(C2(C(=O)Nc3ccc(Br)cc3)CCCC2)cc1
- IC50: 1.37 µg/mL (≈ 3.66 µM)

Structure (SMILES): CCOC(=O)c1cc(CC)sc1NC(=O)c1cc2ccccc2oc1=O
- IC50: 0.38 µg/mL (≈ 1.02 µM)

Structure (SMILES): CCN(CC)CCn1c(=N)n(CC(O)COc2ccc(Cl)cc2Cl)c2ccccc21 (centres undefined)
- IC50: 1.38 µg/mL (≈ 3.06 µM)

Structure (SMILES): NC(CC(=O)c1ccc(Cl)cc1Cl)C(Cl)(Cl)Cl (centres undefined)
- IC50: 0.27 µg/mL (≈ 0.805 µM)

Structure (SMILES): CC(C)(C)c1ccc(C(=O)Nc2cccc(NC(=O)c3cccs3)c2)cc1
- IC50: 2.28 µg/mL (≈ 6.02 µM)

Structure (SMILES): CCCCc1cc(=O)oc2cc(OCC(=O)OCc3ccccc3)c(Cl)cc12
- IC50: < 0.1 µg/mL

Structure (SMILES): c1ccc2c(N3CCCCC3)nc(N3CCCC3)nc2c1
- IC50: 40.4 µg/mL (≈ 143 µM)

Structure (SMILES): CCOC(=O)/C=C/C(=O)Nc1sc2c(c1C(=O)OC)CCC2
- IC50: 0.57 µg/mL (≈ 1.76 µM)

Structure (SMILES): CC(C)(C)OC(=O)COc1cc2oc(=O)cc(-c3ccccc3)c2cc1Cl
- IC50: > 50 µg/mL (inactive)

Structure (SMILES): CC(NC(=O)c1ccc([N+](=O)[O-])o1)C12CC3CC(CC(C3)C1)C2 (centres undefined)
- IC50: 4.46 µg/mL (≈ 14 µM)

Structure (SMILES): C=C(C)CN1CCN(c2nc(NCc3ccco3)c3ccccc3n2)CC1
- IC50: 4.56 µg/mL (≈ 12.5 µM)

Structure (SMILES): CCOC(=O)c1c(-c2ccccc2)c2cc(OC)ccc2n1CCCN(C)C
- IC50: 4.68 µg/mL (≈ 12.3 µM)

Structure (SMILES): CCC(Sc1nc2ccccc2o1)C(=O)Nc1nnc(C)s1 (centres undefined)
- IC50: 0.75 µg/mL (≈ 2.24 µM)

Structure (SMILES): CC(C)(C)c1ccc(C(=O)NC(=S)Nc2ccc(C(=O)O)cc2)cc1
- IC50: 0.64 µg/mL (≈ 1.8 µM)

Structure (SMILES): Cc1ccc(C(=O)NCCC2=CCCCC2)cc1I
- IC50: 2.92 µg/mL (≈ 7.91 µM)

Structure (SMILES): COc1ccc(CCCC(=O)Nc2ccc(Cl)c(Cl)c2)c(C)c1
- IC50: 8.81 µg/mL (≈ 25 µM)

Structure (SMILES): c1ccc2c(NCCc3c[nH]c4ccccc34)c3ccccc3nc2c1
- IC50: 1.51 µg/mL (≈ 4.48 µM)

Structure (SMILES): Cc1ccc(S(=O)(=O)Nc2ccc(NC(=O)Nc3cccc(C(F)(F)F)c3)cc2)cc1
- IC50: 1.13 µg/mL (≈ 2.51 µM)

Structure (SMILES): O=C(NC(=S)Nc1ccc(F)cc1)c1ccc(Br)cc1
- IC50: 0.95 µg/mL (≈ 2.69 µM)
